Results taken from patent US11415579B2, “Assay for measuring a rate of reaction between a target and a ligand candidate” (Imperial College Innovations Ltd., priority 2016, dated 2022).

Tests used:
Cdk2(H71C) (C177A) = target: T1, Cdk2(H71C) (C177A) (Homo sapiens, UniProt P24941, C177A/H71C); experiment: Kinetic thiol consumption assay with Cdk2 mutant H71C; assay type: binding; parameters: key to Rate enhancement, Cdk2 H71C: rate constant with Cdk2 ÷ rate constant with model thiol (fold); details: additional mutation C177A; for Rate constant with Cdk2 H71C: Protein: Cdk2, cysteine position H71C, in h^-1
T1 construct: poly-histidine; made in house; host or cells: E. coli
Method in brief: (§1)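 His-tagged single-surface-cysteine Cdk2 mutants (C177A background) from E. coli, 5 μM in degassed phosphate buffer pH 8, pre-treated with immobilized TCEP beads. Fluorescence (ex/em 380/470 nm) read after 1 h at room temperature, normalized to DMSO/thiol-only control; first-order decay fits gave rate constants, divided by model-thiol rate for rate enhancement.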

[1] = target: T2, human cyclin-dependent kinase 2 (Cdk2) (Homo sapiens, UniProt P24941); experiment: Kinetic thiol consumption assay with wild type Cdk2 (C177); assay type: binding; parameters: key to Rate enhancement, Cdk2 WT: k(Cdk2) divided by k(model thiol); Rate constant with Cdk2 (k(Cdk2)): unit not given here; details: for Rate constant with Cdk2 (k(Cdk2)): 500 μM ligand, 5 μM thiol, phosphate buffer pH 8; for Rate enhancement, Cdk2 WT: no additional mutations; for Rate constant with Cdk2 WT: Protein: Cdk2, cysteine position WT, in h^-1; for k(Cdk2)/k(Cdk2_mut) rate enhancement: model thiol Cdk2[C177A, F80C, K278C]; for k(Cdk2)/k(GSH) rate enhancement: model thiol glutathione
T2 construct: poly-histidine; made in house; host or cells: E. coli
Method in brief: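 Thiol 5 μM (Cdk2 or model thiol), degassed phosphate buffer pH 8, TCEP beads 2% v/v. Plates incubated 1 h RT, ex/em 380/470 nm. First-order decay fit → rate constant; ratio Cdk2/model thiol = rate enhancement.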

Cdk2(S181C) (C177A) = target: T3, Cdk2(S181C) (C177A) (Homo sapiens, UniProt P24941, C177A/S181C); experiment: Kinetic thiol consumption assay with Cdk2 mutant S181C; assay type: binding; parameters: key to Rate enhancement, Cdk2 S181C: rate constant with Cdk2 ÷ rate constant with model thiol (fold); details: additional mutation C177A; for Rate constant with Cdk2 S181C: Protein: Cdk2, cysteine position S181C, in h^-1
T3 construct: poly-histidine; made in house; host or cells: E. coli
Method in brief: as §1

Cdk2[C177A, F80C, K278C] = target: T4, Cdk2[C177A, F80C, K278C] (Homo sapiens, UniProt P24941, C177A/F80C/K278C); experiment: Kinetic thiol consumption assay with mutant Cdk2 as model thiol; assay type: binding; parameters: unit not given here; details: 500 μM ligand, 5 μM thiol, phosphate buffer pH 8
T4 construct: poly-histidine; made in house; host or cells: E. coli
Method in brief: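 Model thiol: His-tagged human Cdk2 C177A/F80C/K278C (two engineered surface cysteines), E. coli-expressed, 5 μM in degassed phosphate buffer pH 8 with immobilized TCEP beads (2% v/v). Fluorescence (ex/em 380/470 nm) followed over time at room temperature, normalized to DMSO/thiol control. First-order decay fit gives rate constants.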

Cdk2(T182C) (C177A) = target: T5, Cdk2(T182C) (C177A) (Homo sapiens, UniProt P24941, C177A/T182C); experiment: Kinetic thiol consumption assay with Cdk2 mutant T182C; assay type: binding; parameters: key to Rate enhancement, Cdk2 T182C: rate constant with Cdk2 ÷ rate constant with model thiol (fold); details: additional mutation C177A; for Rate constant with Cdk2 T182C: Protein: Cdk2, cysteine position T182C, in h^-1
T5 construct: poly-histidine; made in house; host or cells: E. coli
Method in brief: as §1

Cdk2(C177A, F80C) = target: T6, Cdk2(C177A, F80C) (Homo sapiens, UniProt P24941, C177A/F80C); experiment: Kinetic thiol consumption assay with Cdk2 mutant F80C, incl. kobs versus concentration (Kd, k2); assay type: binding; parameters: key to Rate enhancement, Cdk2 F80C: Cdk2 rate constant divided by model-thiol rate constant; details: additional mutation C177A; for Rate constant with Cdk2 F80C: Protein: Cdk2, cysteine position F80C, in h^-1
T6 construct: poly-histidine; made in house; host or cells: E. coli
Method in brief: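 His-tagged Cdk2(C177A/F80C) from E. coli or model thiol, 5 μM in degassed phosphate buffer pH 8 with TCEP beads, reacted with acrylamide ligands; fluorescence (ex/em 380/470 nm) normalized to DMSO control and fitted to first-order decay for kobs. Kd and k2 obtained from hyperbolic fit of kobs versus ligand concentration.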

[2] = Kinetic thiol consumption assay with model thiol glutathione; assay type: physicochemical; parameters: Rate constant with glutathione (k(GSH)): unit not given here; details: for Rate constant with glutathione (k(GSH)): 500 μM ligand, 5 μM thiol, phosphate buffer pH 8; for Rate constant with Glutathione: Protein: Glutathione, cysteine position NA, in h-1
Method in brief: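 Rate constants for acrylamide reaction with 5 μM glutathione come from first-order exponential fits of normalized fluorescence decay (ex 380, em 470 nm). Reactions run in degassed phosphate buffer at pH 8 containing TCEP beads, room temperature.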

Cdk2(R122C) (C177A) = target: T7, Cdk2(R122C) (C177A) (Homo sapiens, UniProt P24941, C177A/R122C); experiment: Kinetic thiol consumption assay with Cdk2 mutant R122C; assay type: binding; parameters: key to Rate enhancement, Cdk2 R122C: rate constant with Cdk2 ÷ rate constant with model thiol (fold); details: additional mutation C177A; for Rate constant with Cdk2 R122C: Protein: Cdk2, cysteine position R122C, in h-1
T7 construct: poly-histidine; made in house; host or cells: E. coli
Method in brief: as §1

Cdk2(S276C) (C177A) = target: T8, Cdk2(S276C) (C177A) (Homo sapiens, UniProt P24941, C177A/S276C); experiment: Kinetic thiol consumption assay with Cdk2 mutant S276C; assay type: binding; parameters: key to Rate enhancement, Cdk2 S276C: rate constant with Cdk2 ÷ rate constant with model thiol (fold); details: additional mutation C177A; for Rate constant with Cdk2 S276C: Protein: Cdk2, cysteine position S276C, in h^-1
T8 construct: poly-histidine; made in house; host or cells: E. coli
Method in brief: as §1

Cdk2(N272C) (C177A) = target: T9, Cdk2(N272C) (C177A) (Homo sapiens, UniProt P24941, C177A/N272C); experiment: Kinetic thiol consumption assay with Cdk2 mutant N272C; assay type: binding; parameters: key to Rate enhancement, Cdk2 N272: rate constant with Cdk2 ÷ rate constant with model thiol (fold); details: for Rate enhancement, Cdk2 N272: Cdk2 N272, additional mutation C177A; for Rate constant with Cdk2 N272C: Protein: Cdk2, cysteine position N272C, additional mutation C177A, in h^-1
T9 construct: poly-histidine; made in house; host or cells: E. coli
Method in brief: as §1

Row | Compound | Rate enhancement, Cdk2 H71C (Cdk2(H71C) (C177A)) | Rate constant with Cdk2 (k(Cdk2)) [1] | Rate enhancement, Cdk2 WT [1] | Rate constant with Cdk2 WT [1] | k(Cdk2)/k(Cdk2_mut) rate enhancement [1] | k(Cdk2)/k(GSH) rate enhancement [1] | Rate enhancement, Cdk2 S181C (Cdk2(S181C) (C177A)) | Rate constant with Cdk2 S181C (Cdk2(S181C) (C177A)) | Rate constant with Cdk2[C177A, F80C, K278C] (k(Cdk2_mut)) (Cdk2[C177A, F80C, K278C]) | Rate enhancement, Cdk2 T182C (Cdk2(T182C) (C177A)) | Rate constant with Cdk2 T182C (Cdk2(T182C) (C177A)) | Rate enhancement, Cdk2 F80C (Cdk2(C177A, F80C)) | Rate constant with Cdk2 F80C (Cdk2(C177A, F80C)) | Rate enhancement, Cdk2 R122C (Cdk2(R122C) (C177A)) | Rate enhancement, Cdk2 S276C (Cdk2(S276C) (C177A)) | Rate constant with Cdk2 S276C (Cdk2(S276C) (C177A)) | Rate enhancement, Cdk2 N272 (Cdk2(N272C) (C177A)) | Rate constant with Cdk2 N272C (Cdk2(N272C) (C177A)) | Rate constant with glutathione (k(GSH)) [2] | Rate constant with Glutathione [2] | further results
1 | C=CC(=O)NCC1CCCN1S(=O)(=O)c1ccc(C(=O)O)cc1 (centres unmarked) [BN122] | 0 | 0.00219 | 0.3657 | 0.002191 | 1.879 | 0.7753 | 0.9743 | 0.005838 | 0.00117 | 2.502 | 0.01499 | 0.3899 | 0.002336 | 0.4317 | 0.1643 | 0.0009842 | 0.7423 | 0.004448 | 0.00283 | 0.005992 | Rate constant with Cdk2 R122C (Cdk2(R122C) (C177A)): 0.002587
2 | C=CC(=O)NCc1ccc(OC)cc1 [BN-63] | 3.1842E−11 | 0.00194 | 1.461 | 0.002998 | 0.5882 | 0.9011 | 0.4386 | 0.0009 | 0.0033 | 0.7193 | 0.001476 | 0.5692 | 0.001168 | 0 | 0.393 | 0.0008064 | 0.5 | 0.001026 | 0.00215 | 0.002052 | Rate constant with Cdk2 H71C (Cdk2(H71C) (C177A)): 6.534E−14

More lines, main results first:

Row | Rate enhancement, Cdk2 H71C (Cdk2(H71C) (C177A)) | Rate constant with Cdk2 (k(Cdk2)) [1] | Rate enhancement, Cdk2 WT [1] | Rate constant with Cdk2 WT [1] | k(Cdk2)/k(Cdk2_mut) rate enhancement [1] | k(Cdk2)/k(GSH) rate enhancement [1] | Rate enhancement, Cdk2 S181C (Cdk2(S181C) (C177A)) | Rate constant with Cdk2 S181C (Cdk2(S181C) (C177A)) | Rate constant with Cdk2[C177A, F80C, K278C] (k(Cdk2_mut)) (Cdk2[C177A, F80C, K278C]) | Rate enhancement, Cdk2 T182C (Cdk2(T182C) (C177A)) | Rate constant with Cdk2 T182C (Cdk2(T182C) (C177A)) | Rate enhancement, Cdk2 F80C (Cdk2(C177A, F80C)) | Rate constant with Cdk2 F80C (Cdk2(C177A, F80C)) | Rate enhancement, Cdk2 R122C (Cdk2(R122C) (C177A)) | Rate enhancement, Cdk2 S276C (Cdk2(S276C) (C177A)) | Rate constant with Cdk2 S276C (Cdk2(S276C) (C177A)) | Rate enhancement, Cdk2 N272 (Cdk2(N272C) (C177A)) | Rate constant with Cdk2 N272C (Cdk2(N272C) (C177A)) | Compound | Rate constant with glutathione (k(GSH)) [2] | Rate constant with Glutathione [2] | further results
3 | 1.842 | 0.02444 | 0.8776 | 0.02444 | 2.308 | 1.028 | 0.4083 | 0.01137 | 0.01059 | 3.878 | 0.108 | 1.419 | 0.03952 | 0.6093 | 1.379 | 0.03841 | 0.8528 | 0.02375 | C=CC(=O)N1CCOC2(CCCCC2)C1 [CA-193] | 0.02378 | 0.02785 | Rate constant with Cdk2 H71C (Cdk2(H71C) (C177A)): 0.05131; Rate constant with Cdk2 R122C (Cdk2(R122C) (C177A)): 0.01697
4 | 0.1266 | 0.00892 | 0.4226 | 0.008917 | 1.45 | 0.5196 | 0.3298 | 0.006959 | 0.00615 | 1.766 | 0.03726 | 0.1236 | 0.002607 | 0.2033 | 0.3272 | 0.006904 | 0.2719 | 0.005738 | C=CC(=O)N1CCN(C(=O)OC(C)(C)C)CC1 [CA-029] | 0.01716 | 0.0211 | Rate constant with Cdk2 H71C (Cdk2(H71C) (C177A)): 0.002672; Rate constant with Cdk2 R122C (Cdk2(R122C) (C177A)): 0.004289
5 | 1.023 | 0.00267 | 0.6163 | 0.002666 | 0.0662 | 0.614 | 0.4697 | 0.002032 | 0.04027 | 1.059 | 0.004582 | 1.482 | 0.006411 | 0.4198 | 0.9498 | 0.004109 | 1.248 | 0.005397 | C=CC(=O)Nc1ccc2c(c1)OC1(CCCC1)O2 [CA-054] | 0.00434 | 0.004326 | Rate constant with Cdk2 H71C (Cdk2(H71C) (C177A)): 0.004426; Rate constant with Cdk2 R122C (Cdk2(R122C) (C177A)): 0.001816
6 | 2.689 | 0.2634 | 3.152 | 0.2634 | 21.31 | 3.224 | 0.9146 | 0.07642 | 0.01236 | 6.483 | 0.5417 | 0.1058 | 0.008842 | 2.269 | 6.528 | 0.5455 | 7.163 | 0.5985 | C=CC(=O)N1CCn2c(Cc3ccccc3)nnc2C1 [CA-092] | 0.0817 | 0.08356 | Rate constant with Cdk2 H71C (Cdk2(H71C) (C177A)): 0.2247; hit classification, Example 2 ([1]; significant rate enhancement against both model thiols (GSH and mutant Cdk2)): hits; Rate constant with Cdk2 R122C (Cdk2(R122C) (C177A)): 0.1896
